Measurements reported in US12161752B2, “Compositions and methods for the treatment of anterior blepharitis and posterior blepharitis” (priority 2019, dated 2024).

Legend:
[1] = Clinic based application of topical Ivermectin for the treatment of inflammatory blepharitis; assay type: in vivo
Protocol: In another embodiment, the pharmaceutical composition is administered periodically. In an embodiment, the pharmaceutical composition is applied daily for 3 days and the treatment is repeated for 3 days again after 2 weeks. In most cases this is sufficient for a significant therapeutic effect. The treatment using this frequency can be repeated again if the condition recurs but this is necessary only in a relatively small number of cases. The intermittent dosage of the Ivermectin provides the benefit of a lower amount of Ivermectin use and thereby lowers the possibility of adverse effects.
In another embodiment, a subject with anterior and posterior blepharitis is identified and the existing symptoms and signs noted. The pharmaceutical composition is applied by the practitioner using for example, slit lamp magnification to accurately identify the areas on the eyelid margin where the pharmaceutical composition is to be applied. A topical anaesthetic drop is applied in the lower conjunctival sac of the eye 5 to 10 minutes prior. Temporary anaesthetization will attenuate the lacrimal reflex thereby minimizing the production of tear fluid during the application process.
The pharmaceutical composition is applied as a film precisely along the length of the lid margin with the applicator just covering the openings of the Meibomian glands but taking care as to not further extend the composition into the mucosal surface. The pharmaceutical composition is extended proximally to cover the lash roots and the skin area in between. The lid is held reflected away from the eyeball until the pharmaceutical composition sets and dries in place. The pharmaceutical composition takes the form of an adhesive film or coating on the lid margin. This procedure is repeated for all the 4 eyelid margins. The administration of the pharmaceutical composition results in enhanced meibum production.
A clinic based application of topical Ivermectin for the treatment of inflammatory blepharitis has been successful; both for cases where Demodex species were not isolated which constituted the majority of cases of Blepharitis treated, and the smaller number of cases where Demodex species were isolated. Most of these were cases with longstanding disease which had been unresponsive to a wide range of currently accepted treatment modalities. More than 95% had full relief of symptoms and a remarkable reduction in signs of inflammation of the lid margins. 87% of the cases required only 1 treatment cycle for marked improvement or complete remission of symptoms.

[2] = oral, cited from earlier work

Substance: mixture containing 5-O-demethyl-22,23-dihydroavermectin A1a and 5-O-demethyl-25-de(1-methylpropyl)-25-(1-methylethyl)-22,23 dihydroavermectin A1a [Ivermectin]
- cases that required only 1 treatment cycle for marked improvement or complete remission of symptoms ([1]; topical application to lid margins): 87%
- cases with full relief of symptoms and a remarkable reduction in signs of inflammation of the lid margins ([1]; topical application to lid margins, cases with and without Demodex isolated, mostly longstanding disease unresponsive to accepted treatments): More than 95%
- Meibomian gland orifices and secretions after treatment ([1]; topical application, a significant number of cases): re-opening of previously closed Meibomian gland orifices
- overall outcome of treatment of inflammatory blepharitis ([1]; topical application, cases with and without Demodex species isolated): successful
- dry eye symptoms after treatment ([1]; topical application, majority of the cases where dry eye symptoms were present): remarkable improvement
- adverse effect at high doses ([2]; high doses): paralysis
- safety profile [2]: good safety profile
